Experimental data from ChEMBL document CHEMBL1201862, “PubChem BioAssay data set” (2004).
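Briefly, cells in 96-well plates were exposed to five compound concentrations for 48 h, and endpoints were estimated by linear interpolation. GI50 marks 50% less growth.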 The source made the active and inactive calls. Rule as the data show it: active = GI50 up to about 1.1 µM and inactive = higher.

How the values were obtained:
Assay in all cases: DTP human tumour cell line panel, 48 h
NCI/ADR-RES = system: NCI/ADR-RES
OVCAR-5 = system: OVCAR-5
TK-10 = system: TK-10
BT-549 = system: BT-549
NCI-H23 = system: NCI-H23
HCT-116 = system: HCT-116
SR = system: SR
SF-539 = system: SF-539
RXF 393 = system: RXF 393
MDA-MB-231 = system: MDA-MB-231
NCI-H522 = system: NCI-H522
NCI-H226 = system: NCI-H226
OVCAR-8 = system: OVCAR-8
MOLT-4 = system: MOLT-4
SW-620 = system: SW-620
SK-MEL-5 = system: SK-MEL-5
CCRF-CEM = system: CCRF-CEM
Malme-3M = system: Malme-3M
A549 = system: A549
MCF7 = system: MCF7
ACHN = system: ACHN
EKVX = system: EKVX
786-0 = system: 786-0
NCI-H460 = system: NCI-H460
SF-268 = system: SF-268
RPMI-8226 = system: RPMI-8226
HT-29 = system: HT-29
DU-145 = system: DU-145
HCC 2998 = system: HCC 2998
SK-MEL-2 = system: SK-MEL-2
SK-MEL-28 = system: SK-MEL-28
Hs-578T = system: Hs-578T
SF-295 = system: SF-295
OVCAR-3 = system: OVCAR-3
SNB-19 = system: SNB-19
HOP-62 = system: HOP-62
A498 = system: A498
LOX IMVI = system: LOX IMVI
HL-60 = system: HL-60
SN12C = system: SN12C
OVCAR-4 = system: OVCAR-4
UACC-62 = system: UACC-62
T47D = system: T47D
UACC-257 = system: UACC-257
HCT-15 = system: HCT-15
U-251 = system: U-251
UO-31 = system: UO-31
CAKI-1 = system: CAKI-1
MDA-MB-435 = system: MDA-MB-435
IGROV-1 = system: IGROV-1
COLO 205 = system: COLO 205
PC-3 = system: PC-3
KM12 = system: KM12
HOP-92 = system: HOP-92
M14 = system: M14
K562 = system: K562
SK-OV-3 = system: SK-OV-3
MDA-N = system: MDA-N

Question: For `N=C(N)N/N=C/c1c(-c2ccc(Cl)c([N+](=O)[O-])c2)nc2sc(Cl)cn12`, which GI50 (NCI/ADR-RES) is on record?
Answer: 46 µM (inactive)

Question: And the GI50 (OVCAR-5)?
Answer: 4.17 µM (inactive)

Question: And the GI50 (TK-10)?
Answer: 28.8 µM (inactive)

Question: And the GI50 (BT-549)?
Answer: 1.69 µM (inactive)

Question: And the GI50 (NCI-H23)?
Answer: 3.68 µM (inactive)

Question: What about the GI50 (HCT-116) of the same compound?
Answer: 3.38 µM (inactive)

Question: And the GI50 (SR)?
Answer: 1.44 µM (inactive)

Question: And the GI50 (SF-539)?
Answer: 2.3 µM (inactive)

Question: And the GI50 (RXF 393)?
Answer: 1.77 µM (inactive)

Question: What about the GI50 (MDA-MB-231) of the same compound?
Answer: 1.97 µM (inactive)

Question: And the GI50 (NCI-H522)?
Answer: 1.51 µM (inactive)

Question: And the GI50 (NCI-H226)?
Answer: 41.4 µM (inactive)

Question: What about the GI50 (OVCAR-8) of the same compound?
Answer: 1.77 µM (inactive)

Question: What about the GI50 (MOLT-4) of the same compound?
Answer: 1.63 µM (inactive)

Question: And the GI50 (SW-620)?
Answer: 2.2 µM (inactive)

Question: And the GI50 (SK-MEL-5)?
Answer: 4.07 µM (inactive)

Question: And the GI50 (CCRF-CEM)?
Answer: 0.565 µM (active)

Question: And the GI50 (Malme-3M)?
Answer: 2.84 µM (inactive)

Question: And the GI50 (A549)?
Answer: 2.47 µM (inactive)

Question: What about the GI50 (MCF7) of the same compound?
Answer: 2.39 µM (inactive)

Question: What about the GI50 (ACHN) of the same compound?
Answer: 1.98 µM (inactive)

Question: And the GI50 (EKVX)?
Answer: 2.83 µM (inactive)

Question: What about the GI50 (786-0) of the same compound?
Answer: 3.15 µM (inactive)

Question: And the GI50 (NCI-H460)?
Answer: 2.7 µM (inactive)

Question: What about the GI50 (SF-268) of the same compound?
Answer: 2.68 µM (inactive)

Question: What about the GI50 (RPMI-8226) of the same compound?
Answer: 2.99 µM (inactive)

Question: What about the GI50 (HT-29) of the same compound?
Answer: 2.36 µM (inactive)

Question: And the GI50 (DU-145)?
Answer: 1.95 µM (inactive)

Question: And the GI50 (HCC 2998)?
Answer: 3.27 µM (inactive)

Question: What about the GI50 (SK-MEL-2) of the same compound?
Answer: 1.69 µM (inactive)

Question: And the GI50 (SK-MEL-28)?
Answer: 1.94 µM (inactive)

Question: And the GI50 (Hs-578T)?
Answer: 2.33 µM (inactive)

Question: What about the GI50 (SF-295) of the same compound?
Answer: 2.2 µM (inactive)

Question: What about the GI50 (OVCAR-3) of the same compound?
Answer: 1.51 µM (inactive)

Question: What about the GI50 (SNB-19) of the same compound?
Answer: 1.79 µM (inactive)

Question: What about the GI50 (HOP-62) of the same compound?
Answer: 3.85 µM (inactive)

Question: What about the GI50 (A498) of the same compound?
Answer: 1.95 µM (inactive)

Question: And the GI50 (LOX IMVI)?
Answer: 2.44 µM (inactive)

Question: And the GI50 (HL-60)?
Answer: 3.45 µM (inactive)

Question: And the GI50 (SN12C)?
Answer: 2.32 µM (inactive)

Question: And the GI50 (OVCAR-4)?
Answer: 2.04 µM (inactive)

Question: What about the GI50 (UACC-62) of the same compound?
Answer: 1.95 µM (inactive)

Question: What about the GI50 (T47D) of the same compound?
Answer: 1.23 µM (inactive)

Question: And the GI50 (UACC-257)?
Answer: 1.91 µM (inactive)

Question: What about the GI50 (HCT-15) of the same compound?
Answer: 2.29 µM

Question: And the GI50 (U-251)?
Answer: 2.95 µM (inactive)

Question: And the GI50 (UO-31)?
Answer: 1.84 µM (inactive)

Question: And the GI50 (CAKI-1)?
Answer: 2.34 µM (inactive)

Question: What about the GI50 (MDA-MB-435) of the same compound?
Answer: 2.25 µM (inactive)

Question: And the GI50 (IGROV-1)?
Answer: 1.65 µM (inactive)

Question: And the GI50 (COLO 205)?
Answer: 1.64 µM (inactive)

Question: And the GI50 (PC-3)?
Answer: 1.88 µM (inactive)

Question: And the GI50 (KM12)?
Answer: 2.56 µM (inactive)

Question: And the GI50 (HOP-92)?
Answer: 1.67 µM (inactive)

Question: And the GI50 (M14)?
Answer: 2.79 µM (inactive)

Question: What about the GI50 (K562) of the same compound?
Answer: 0.617 µM (active)

Question: With `CC(C)(Cl)C(Br)CCC(C)(Br)C(Br)CBr` (stereo not given) as the compound, how does the GI50 (NCI/ADR-RES) read?
Answer: 17 µM (inactive)

Question: And the GI50 (OVCAR-5)?
Answer: 15.7 µM (inactive)

Question: What about the GI50 (TK-10) of the same compound?
Answer: 27.5 µM (inactive)

Question: And the GI50 (BT-549)?
Answer: 22.3 µM (inactive)

Question: And the GI50 (NCI-H23)?
Answer: 19.5 µM (inactive)

Question: And the GI50 (HCT-116)?
Answer: 16 µM (inactive)

Question: And the GI50 (SF-539)?
Answer: 15.6 µM (inactive)

Question: And the GI50 (RXF 393)?
Answer: 22.1 µM (inactive)

Question: What about the GI50 (SK-OV-3) of the same compound?
Answer: 29.1 µM (inactive)

Question: What about the GI50 (MDA-MB-231) of the same compound?
Answer: 12.9 µM (inactive)

Question: What about the GI50 (NCI-H522) of the same compound?
Answer: 13 µM (inactive)

Question: What about the GI50 (NCI-H226) of the same compound?
Answer: 18.8 µM (inactive)

Question: What about the GI50 (OVCAR-8) of the same compound?
Answer: 16.2 µM (inactive)

Question: And the GI50 (MOLT-4)?
Answer: 19.6 µM (inactive)

Question: What about the GI50 (SW-620) of the same compound?
Answer: 16.3 µM (inactive)

Question: And the GI50 (SK-MEL-5)?
Answer: 14.6 µM (inactive)

Question: And the GI50 (CCRF-CEM)?
Answer: 10.5 µM (inactive)

Question: And the GI50 (Malme-3M)?
Answer: 17.4 µM (inactive)

Question: And the GI50 (A549)?
Answer: 30.1 µM (inactive)

Question: And the GI50 (ACHN)?
Answer: 17.4 µM (inactive)

Question: And the GI50 (EKVX)?
Answer: 25.4 µM (inactive)

Question: What about the GI50 (786-0) of the same compound?
Answer: 17.4 µM (inactive)

Question: What about the GI50 (NCI-H460) of the same compound?
Answer: 15.3 µM (inactive)

Question: And the GI50 (SF-268)?
Answer: 16.9 µM (inactive)

Question: And the GI50 (RPMI-8226)?
Answer: 19.2 µM (inactive)

Question: What about the GI50 (HT-29) of the same compound?
Answer: 15.8 µM (inactive)

Question: And the GI50 (DU-145)?
Answer: 19.6 µM (inactive)

Question: And the GI50 (HCC 2998)?
Answer: 13.1 µM (inactive)

Question: And the GI50 (SK-MEL-2)?
Answer: 14.7 µM (inactive)

Question: What about the GI50 (SK-MEL-28) of the same compound?
Answer: 17.2 µM (inactive)

Question: What about the GI50 (Hs-578T) of the same compound?
Answer: 21.5 µM (inactive)

Question: What about the GI50 (SF-295) of the same compound?
Answer: 17.7 µM (inactive)

Question: What about the GI50 (OVCAR-3) of the same compound?
Answer: 15.9 µM (inactive)

Question: What about the GI50 (SNB-19) of the same compound?
Answer: 23.1 µM (inactive)

Question: What about the GI50 (HOP-62) of the same compound?
Answer: 16.1 µM (inactive)

Question: And the GI50 (A498)?
Answer: 19.3 µM (inactive)

Question: What about the GI50 (HL-60) of the same compound?
Answer: 17 µM (inactive)

Question: What about the GI50 (SN12C) of the same compound?
Answer: 20 µM (inactive)

Question: What about the GI50 (OVCAR-4) of the same compound?
Answer: 18.7 µM (inactive)

Question: And the GI50 (UACC-62)?
Answer: 17.7 µM (inactive)

Question: What about the GI50 (T47D) of the same compound?
Answer: 18.7 µM (inactive)

Question: What about the GI50 (MDA-N) of the same compound?
Answer: 19.5 µM (inactive)

Question: And the GI50 (UACC-257)?
Answer: 18.7 µM (inactive)

Question: And the GI50 (HCT-15)?
Answer: 17.1 µM

Question: What about the GI50 (U-251) of the same compound?
Answer: 16.5 µM (inactive)

Question: What about the GI50 (UO-31) of the same compound?
Answer: 19 µM (inactive)

Question: What about the GI50 (MDA-MB-435) of the same compound?
Answer: 17.8 µM (inactive)

Question: What about the GI50 (IGROV-1) of the same compound?
Answer: 19.6 µM (inactive)

Question: And the GI50 (COLO 205)?
Answer: 16.9 µM (inactive)

Question: And the GI50 (PC-3)?
Answer: 24.9 µM (inactive)

Question: What about the GI50 (KM12) of the same compound?
Answer: 17.8 µM (inactive)

Question: What about the GI50 (HOP-92) of the same compound?
Answer: 21.5 µM (inactive)

Question: What about the GI50 (M14) of the same compound?
Answer: 17.7 µM (inactive)

Question: What about the GI50 (K562) of the same compound?
Answer: 23 µM (inactive)
